Assay: xn = mol fraction of the nth substance listed

CCCOC(=O)c1ccccc1 + CCCCCCCCCC
101 kPa
Settings	viscosity [mPa·s]
298.15 K, x2 = 0.0819	2.098
298.15 K, x2 = 0.1156	2.012
298.15 K, x2 = 0.1582	1.889
298.15 K, x2 = 0.2027	1.779
298.15 K, x2 = 0.2437	1.682
298.15 K, x2 = 0.2875	1.589
298.15 K, x2 = 0.3302	1.501
298.15 K, x2 = 0.3837	1.407
298.15 K, x2 = 0.4284	1.338
298.15 K, x2 = 0.4707	1.277
298.15 K, x2 = 0.5198	1.213
298.15 K, x2 = 0.57	1.156
298.15 K, x2 = 0.6127	1.112
298.15 K, x2 = 0.7143	1.02
298.15 K, x2 = 0.773	0.977
298.15 K, x2 = 0.8262	0.94
298.15 K, x2 = 0.8749	0.914
298.15 K, x2 = 0.9333	0.887
308.15 K, x2 = 0.0562	1.757
308.15 K, x2 = 0.1002	1.658
308.15 K, x2 = 0.1418	1.569
308.15 K, x2 = 0.1788	1.495
308.15 K, x2 = 0.2302	1.4
308.15 K, x2 = 0.264	1.343
308.15 K, x2 = 0.3167	1.256
308.15 K, x2 = 0.356	1.198
308.15 K, x2 = 0.3966	1.142
308.15 K, x2 = 0.4436	1.087
308.15 K, x2 = 0.4971	1.029
308.15 K, x2 = 0.5403	0.99
308.15 K, x2 = 0.5866	0.952
308.15 K, x2 = 0.6432	0.908
308.15 K, x2 = 0.6916	0.875
308.15 K, x2 = 0.7401	0.847
308.15 K, x2 = 0.7945	0.816
308.15 K, x2 = 0.8513	0.789
308.15 K, x2 = 0.9295	0.759
318.15 K, x2 = 0.0529	1.466
318.15 K, x2 = 0.0776	1.417
318.15 K, x2 = 0.1165	1.349
318.15 K, x2 = 0.161	1.273
318.15 K, x2 = 0.2024	1.211
318.15 K, x2 = 0.2495	1.144
318.15 K, x2 = 0.2905	1.092
318.15 K, x2 = 0.3397	1.034
318.15 K, x2 = 0.3834	0.987
318.15 K, x2 = 0.432	0.94
318.15 K, x2 = 0.4779	0.899
318.15 K, x2 = 0.5308	0.857
318.15 K, x2 = 0.5771	0.824
318.15 K, x2 = 0.6312	0.79
318.15 K, x2 = 0.6794	0.763
318.15 K, x2 = 0.7616	0.722
318.15 K, x2 = 0.8328	0.693
318.15 K, x2 = 0.8708	0.679
318.15 K, x2 = 0.906	0.668

Oc1ccccc1Cl + CN(C)c1ccccc1
101 kPa
Settings	viscosity [mPa·s]
293.15 K, x1 = 0.1395	1.859
293.15 K, x1 = 0.2654	2.43
293.15 K, x1 = 0.3923	3.05
293.15 K, x1 = 0.5102	3.7
293.15 K, x1 = 0.5898	4.14
293.15 K, x1 = 0.6926	4.69
293.15 K, x1 = 0.743	4.89
293.15 K, x1 = 0.7994	5
293.15 K, x1 = 0.8299	4.98
293.15 K, x1 = 0.896	4.74
298 K, x1 = 0.1002	1.53
298 K, x1 = 0.199	1.698
298 K, x1 = 0.3025	2.194
298 K, x1 = 0.4016	2.558
298 K, x1 = 0.502	3.036
298 K, x1 = 0.6009	3.48
298 K, x1 = 0.6991	3.758
298 K, x1 = 0.8	3.852
298 K, x1 = 0.9019	3.691
303 K, x1 = 0.1002	1.384
303 K, x1 = 0.199	1.522
303 K, x1 = 0.3025	1.937
303 K, x1 = 0.4016	2.2
303 K, x1 = 0.502	2.564
303 K, x1 = 0.6009	2.904
303 K, x1 = 0.6991	3.121
303 K, x1 = 0.8	3.212
303 K, x1 = 0.9019	3.106
303.15 K, x1 = 0.1395	1.473
303.15 K, x1 = 0.2654	1.89
303.15 K, x1 = 0.3923	2.35
303.15 K, x1 = 0.5102	2.79
303.15 K, x1 = 0.5898	3.09
303.15 K, x1 = 0.6926	3.41
303.15 K, x1 = 0.743	3.505
303.15 K, x1 = 0.7994	3.545
303.15 K, x1 = 0.8299	3.545
303.15 K, x1 = 0.896	3.41
308 K, x1 = 0.1002	1.254
308 K, x1 = 0.199	1.366
308 K, x1 = 0.3025	1.702
308 K, x1 = 0.4016	1.951
308 K, x1 = 0.502	2.221
308 K, x1 = 0.6009	2.476
308 K, x1 = 0.6991	2.681
308 K, x1 = 0.8	2.757
308 K, x1 = 0.9019	2.662
313 K, x1 = 0.1002	1.171
313 K, x1 = 0.199	1.234
313 K, x1 = 0.3025	1.527
313 K, x1 = 0.4016	1.736
313 K, x1 = 0.502	1.965
313 K, x1 = 0.6009	2.152
313 K, x1 = 0.6991	2.335
313 K, x1 = 0.8	2.397
313 K, x1 = 0.9019	2.36
313.15 K, x1 = 0.1395	1.243
313.15 K, x1 = 0.2654	1.41
313.15 K, x1 = 0.3923	1.66
313.15 K, x1 = 0.5102	1.915
313.15 K, x1 = 0.5898	2.085
313.15 K, x1 = 0.6926	2.305
313.15 K, x1 = 0.743	2.4
313.15 K, x1 = 0.7994	2.47
313.15 K, x1 = 0.8299	2.475
313.15 K, x1 = 0.896	2.45
318 K, x1 = 0.1002	1.077
318 K, x1 = 0.199	1.122
318 K, x1 = 0.3025	1.382
318 K, x1 = 0.4016	1.56
318 K, x1 = 0.502	1.728
318 K, x1 = 0.6009	1.899
318 K, x1 = 0.6991	2.05
318 K, x1 = 0.8	2.173
318 K, x1 = 0.9019	2.028

CC(C)C(C)O (centres undefined) + NCc1ccccc1
viscosity [mPa·s], 101.33 kPa
Settings	x2 = 0.0999	x2 = 0.2	x2 = 0.3002	x2 = 0.4001	x2 = 0.4997	x2 = 0.5998	x2 = 0.6999	x2 = 0.7997	x2 = 0.9
298.15 K	3.336	3.109	2.89	2.683	2.49	2.315	2.131	1.96	1.81
303.15 K	2.903	2.663	2.443	2.249	2.084	1.927	1.792	1.673	1.571
308.15 K	2.388	2.184	2.009	1.853	1.724	1.614	1.521	1.449	1.404

CCCCOC(C)=O + CCCCCCCCCCCCCCCC
298.15 K, 101.3 kPa
Settings	viscosity [mPa·s]
x1 = 0.0797	2.778
x1 = 0.127	2.606
x1 = 0.2518	2.227
x1 = 0.3552	1.944
x1 = 0.4446	1.716
x1 = 0.5252	1.539
x1 = 0.5544	1.484
x1 = 0.594	1.39
x1 = 0.7165	1.149
x1 = 0.8169	0.9655
x1 = 0.8982	0.834
x1 = 0.952	0.7259

C=COC(C)=O + CCCCCCCCCCO
303.15 K, 101.33 kPa
Settings	viscosity [mPa·s]
x1 = 0.1013	6.774
x1 = 0.1998	4.804
x1 = 0.3007	3.437
x1 = 0.3991	2.488
x1 = 0.5006	1.793
x1 = 0.6004	1.31
x1 = 0.6957	0.952
x1 = 0.8003	0.682
x1 = 0.904	0.489

From the CheMixHub viscosity set
